According to patent US6509371B1, “Compositions containing Bergamottin for increasing the oral bioavailability of pharmaceutical agents” (Warner-Lambert Company, priority 1997, dated 2003):

Key:
P450 3A4 [1] = target: T1, P450 3A4 (Homo sapiens, UniProt P08684); experiment: P450 content by reduced-CO difference spectrum after incubation in the reconstituted system; assay type: biochemical; parameters: A full-length P450 3A4 cDNA (except for the deletion of codons 3-12 at the 5′-end); made in house; host or cells: E. coli MV1304 (pCW vector); details: 50 μM BG, 15 minutes; for P450: 37° C.
Description: Reactions with various concentrations of BG were initiated by addition of 1 mM NADPH, and terminated on ice. The incubations were performed at 37° C. for the time periods indicated. […] The spectra were recorded between 330 to 700 nm against the diluting buffer as reference on a […] spectrophotometer in the split beam mode.
Target sequence in this assay (P08684 with tags, fused parts or gaps): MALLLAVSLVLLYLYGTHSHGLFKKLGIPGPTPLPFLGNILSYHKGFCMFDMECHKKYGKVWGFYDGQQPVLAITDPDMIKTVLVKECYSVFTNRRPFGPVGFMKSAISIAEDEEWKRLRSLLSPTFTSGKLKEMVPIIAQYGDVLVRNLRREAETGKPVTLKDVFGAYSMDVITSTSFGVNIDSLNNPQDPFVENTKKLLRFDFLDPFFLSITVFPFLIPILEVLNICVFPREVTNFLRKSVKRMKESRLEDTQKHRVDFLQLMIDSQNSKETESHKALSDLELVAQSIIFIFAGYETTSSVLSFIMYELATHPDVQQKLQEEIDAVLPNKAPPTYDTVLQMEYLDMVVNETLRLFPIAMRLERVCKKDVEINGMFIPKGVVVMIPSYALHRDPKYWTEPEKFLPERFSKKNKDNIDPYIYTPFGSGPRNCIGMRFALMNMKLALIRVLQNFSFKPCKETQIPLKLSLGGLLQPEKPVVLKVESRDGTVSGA

P450 2A6 = target: T2, P450 2A6 (Homo sapiens, UniProt P11509); experiment: Human liver microsomes, coumarin 7-hydroxylation; assay type: biochemical; details: pooled microsomes, 4 μM coumarin
T2 construct: Pooled human liver microsomes; from tissue; host or cells: human liver microsomes, pool of 6
T2 sequence (P11509 1-494): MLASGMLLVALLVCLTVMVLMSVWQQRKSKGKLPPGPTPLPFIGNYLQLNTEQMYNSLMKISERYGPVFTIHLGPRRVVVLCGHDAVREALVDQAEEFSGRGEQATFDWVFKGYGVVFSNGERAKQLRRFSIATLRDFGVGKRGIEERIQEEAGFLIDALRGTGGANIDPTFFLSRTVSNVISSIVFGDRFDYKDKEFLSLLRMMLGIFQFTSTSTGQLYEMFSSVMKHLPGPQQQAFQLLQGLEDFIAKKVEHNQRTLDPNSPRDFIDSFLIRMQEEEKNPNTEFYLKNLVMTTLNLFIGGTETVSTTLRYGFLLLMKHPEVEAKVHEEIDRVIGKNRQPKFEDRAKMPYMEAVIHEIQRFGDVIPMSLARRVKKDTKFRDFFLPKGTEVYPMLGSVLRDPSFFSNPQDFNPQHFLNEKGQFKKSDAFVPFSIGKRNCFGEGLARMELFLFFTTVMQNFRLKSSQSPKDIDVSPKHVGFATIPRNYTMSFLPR
Description: (§1) Human liver tissues were obtained from the University of Chicago Distribution Center of […] (Liver Transplant Procurement and Distribution Service, University of Minnesota, Minneapolis, Minn.), Human Biologics Inc. (Phoenix, Ariz.) and the International Institute for the Advancement of Science (Exton, Pa.). The liver microsomes were prepared by differential centrifugation. Caffeine N3-demethylation (Tassaneeyakul W., Mohammed […]., Veronese M. E., Tukey R. H., Quattrochi […]., and Miners J. O. Caffeine as a probe for human cytochromes P450: Validation using cDNA-expression,immunoinhibition, and microsomal kinetic and inhibitor techniques. Pharmacogenetics, 1992;2:173-183), coumarin 7-hydroxylation ([…]. Metabolism of coumarin by rat, gerbil, and human liver microsomes. Xenobiotica, 1992;22:357-367), tolbutamide hydroxylation (Miners J. O., Smith K. J., Robson […]., Veronese M. E., and Birkett D. J. Tolbutamide hydroxylation by human liver microsomes: Kinetic characterization and relationship to other cytochrome P-450 dependent xenobiotic oxidations. Biochem. Pharmacol., 1988;37:1137-1144), racemic bufurolol 1'-hydroxylation ([…]., Gut […]., and Meyer U. A. […] Anal. […] S. Hydroxylation of chlorzoxazone as a specific probe for human liver cytochrome P-450 IIEI. Chem. Res. […] The reactions were initiated by the additions of 1 mM NADPH and terminated in ice. […]

P450 1A2 = target: T3, P450 1A2 (Homo sapiens, UniProt P05177); experiment: Human liver microsomes, caffeine N3-demethylation; assay type: biochemical; details: pooled microsomes, 100 μM caffeine
T3 sequence (P05177 1-516): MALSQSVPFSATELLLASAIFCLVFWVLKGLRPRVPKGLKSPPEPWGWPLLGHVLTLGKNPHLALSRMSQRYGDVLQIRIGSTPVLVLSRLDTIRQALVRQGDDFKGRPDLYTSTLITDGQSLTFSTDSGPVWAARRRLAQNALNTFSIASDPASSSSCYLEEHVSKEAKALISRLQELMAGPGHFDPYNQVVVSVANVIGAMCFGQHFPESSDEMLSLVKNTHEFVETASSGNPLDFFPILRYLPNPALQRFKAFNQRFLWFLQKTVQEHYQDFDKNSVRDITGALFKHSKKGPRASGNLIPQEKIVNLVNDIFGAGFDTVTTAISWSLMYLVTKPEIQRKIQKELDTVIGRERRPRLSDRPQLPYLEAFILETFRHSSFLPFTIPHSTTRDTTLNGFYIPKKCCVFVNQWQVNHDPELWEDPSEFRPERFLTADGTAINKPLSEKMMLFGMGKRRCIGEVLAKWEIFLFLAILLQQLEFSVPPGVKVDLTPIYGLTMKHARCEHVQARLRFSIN
Description: as §1

P450 2C19 = target: T4, P450 2C19 (Homo sapiens, UniProt P33261); experiment: Human liver microsomes, (S)-mephenytoin 4′-hydroxylation; assay type: biochemical; details: pooled human liver microsomes, probe (S)-mephenytoin (50 μM), read-out: P450 2C19 activity inhibited
T4 construct: incubated with pooled human liver microsomes; from tissue; host or cells: pooled human liver microsomes
Description: as §1

P450 3A4 [2] = target: T1, P450 3A4; experiment: HPLC analysis of BG-inactivated P450 3A4 on a Poros column; assay type: biochemical; parameters: A full-length P450 3A4 cDNA (except for the deletion of codons 3-12 at the 5′-end); made in house; host or cells: E. coli MV1304 (pCW vector)
From the text: S., Hopkins N. E., Alworth D. A., and Hollenberg P. F. […] The eluate was monitored by UV detection at […], 310, and 405 nm simultaneously.
Target sequence in this assay (P08684 with tags, fused parts or gaps): as the sequence (P08684 with tags, fused parts or gaps) above

P450 2E1 = target: T5, P450 2E1 (Homo sapiens, UniProt P05181); experiment: Human liver microsomes, chlorzoxazone 6-hydroxylation; assay type: biochemical; details: pooled human liver microsomes
T5 construct: Pooled human liver microsomes; from tissue; host or cells: human liver microsomes, pool of 6
Description: as §1

P450 2D6 = target: T6, P450 2D6 (Homo sapiens, UniProt P10635); experiment: Human liver microsomes, racemic bufurolol 1′-hydroxylation; assay type: biochemical; details: pooled human liver microsomes
T6 construct: Pooled human liver microsomes; from tissue; host or cells: human liver microsomes, pool of 6
Description: as §1

P450 3A4 [3] = target: T1, P450 3A4; experiment: BG-mediated inactivation of P450 3A4 in a reconstituted system, testosterone 6β-hydroxylation activity
Target sequence in this assay (P08684 with tags, fused parts or gaps): as the sequence (P08684 with tags, fused parts or gaps) above

P450 3A4 [4] = target: T1, P450 3A4; experiment: Human liver microsomes, testosterone 6β-hydroxylation; assay type: biochemical; details: pooled human liver microsomes
Description: (§2) Human liver tissues were obtained from the University of Chicago Distribution Center of […] (Liver Transplant Procurement and Distribution Service, University of Minnesota, Minneapolis, Minn.), Human Biologics Inc. (Phoenix, Ariz.) and the International Institute for the Advancement of Science (Exton, Pa.). The liver microsomes were prepared by differential centrifugation. […] Anal. […] S. Hydroxylation of chlorzoxazone as a specific probe for human liver cytochrome P-450 IIEI. Chem. Res. […] The reactions were initiated by the additions of 1 mM NADPH and terminated in ice. […] A. Assay of mephenytoin metabolism in human liver microsomes by high-performance liquid chromatography. […] Experimental controls consisted of the complete incubation components without the addition of BG.
Target sequence in this assay (P08684 whole entry): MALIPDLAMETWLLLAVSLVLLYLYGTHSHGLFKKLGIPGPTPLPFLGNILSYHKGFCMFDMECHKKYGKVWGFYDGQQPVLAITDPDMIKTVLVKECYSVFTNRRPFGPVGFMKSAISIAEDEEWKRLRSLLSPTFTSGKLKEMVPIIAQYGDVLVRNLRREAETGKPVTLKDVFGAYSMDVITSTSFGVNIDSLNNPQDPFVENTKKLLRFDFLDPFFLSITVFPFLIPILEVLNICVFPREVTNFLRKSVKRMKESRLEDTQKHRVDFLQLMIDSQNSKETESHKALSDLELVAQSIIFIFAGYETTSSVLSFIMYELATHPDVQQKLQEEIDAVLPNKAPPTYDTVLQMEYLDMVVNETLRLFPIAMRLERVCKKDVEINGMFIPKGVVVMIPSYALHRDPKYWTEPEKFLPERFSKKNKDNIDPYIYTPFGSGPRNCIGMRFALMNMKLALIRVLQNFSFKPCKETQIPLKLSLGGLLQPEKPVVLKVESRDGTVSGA

P450 2C9 = target: T7, P450 2C9 (Homo sapiens, UniProt P11712); experiment: Human liver microsomes, tolbutamide hydroxylation; assay type: biochemical; details: pooled human liver microsomes
T7 construct: Pooled human liver microsomes; from tissue; host or cells: human liver microsomes, pool of 6
Description: as §2

[5] = human, pH 7.5, probe testosterone (200 μM), 6β-hydroxylation

T4 sequence (P33261 whole entry): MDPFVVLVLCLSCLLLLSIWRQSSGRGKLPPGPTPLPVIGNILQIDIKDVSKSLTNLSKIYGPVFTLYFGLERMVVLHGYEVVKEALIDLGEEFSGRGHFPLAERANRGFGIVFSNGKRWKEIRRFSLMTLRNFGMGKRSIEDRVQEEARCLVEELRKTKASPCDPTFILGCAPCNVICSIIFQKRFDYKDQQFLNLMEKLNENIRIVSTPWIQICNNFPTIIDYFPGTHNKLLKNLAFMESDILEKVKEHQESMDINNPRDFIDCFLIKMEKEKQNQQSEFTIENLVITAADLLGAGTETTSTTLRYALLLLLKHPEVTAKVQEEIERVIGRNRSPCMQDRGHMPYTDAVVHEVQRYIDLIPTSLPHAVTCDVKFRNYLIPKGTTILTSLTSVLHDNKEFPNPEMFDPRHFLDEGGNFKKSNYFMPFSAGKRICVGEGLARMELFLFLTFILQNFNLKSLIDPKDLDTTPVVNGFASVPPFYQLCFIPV
T6 sequence (P10635 whole entry): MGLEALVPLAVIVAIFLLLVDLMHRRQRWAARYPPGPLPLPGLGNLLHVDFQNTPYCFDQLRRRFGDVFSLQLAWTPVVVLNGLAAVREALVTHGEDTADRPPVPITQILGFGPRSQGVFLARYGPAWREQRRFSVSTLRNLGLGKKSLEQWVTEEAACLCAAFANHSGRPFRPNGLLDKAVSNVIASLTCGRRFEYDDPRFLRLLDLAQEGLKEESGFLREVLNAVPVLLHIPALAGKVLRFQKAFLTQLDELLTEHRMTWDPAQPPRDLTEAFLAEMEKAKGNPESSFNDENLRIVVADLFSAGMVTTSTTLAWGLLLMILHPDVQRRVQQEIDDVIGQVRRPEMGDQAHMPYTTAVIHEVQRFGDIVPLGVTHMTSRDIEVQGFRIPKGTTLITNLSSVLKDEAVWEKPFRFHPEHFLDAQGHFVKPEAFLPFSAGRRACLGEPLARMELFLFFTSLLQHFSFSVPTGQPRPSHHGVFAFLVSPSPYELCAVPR
T5 sequence (P05181 whole entry): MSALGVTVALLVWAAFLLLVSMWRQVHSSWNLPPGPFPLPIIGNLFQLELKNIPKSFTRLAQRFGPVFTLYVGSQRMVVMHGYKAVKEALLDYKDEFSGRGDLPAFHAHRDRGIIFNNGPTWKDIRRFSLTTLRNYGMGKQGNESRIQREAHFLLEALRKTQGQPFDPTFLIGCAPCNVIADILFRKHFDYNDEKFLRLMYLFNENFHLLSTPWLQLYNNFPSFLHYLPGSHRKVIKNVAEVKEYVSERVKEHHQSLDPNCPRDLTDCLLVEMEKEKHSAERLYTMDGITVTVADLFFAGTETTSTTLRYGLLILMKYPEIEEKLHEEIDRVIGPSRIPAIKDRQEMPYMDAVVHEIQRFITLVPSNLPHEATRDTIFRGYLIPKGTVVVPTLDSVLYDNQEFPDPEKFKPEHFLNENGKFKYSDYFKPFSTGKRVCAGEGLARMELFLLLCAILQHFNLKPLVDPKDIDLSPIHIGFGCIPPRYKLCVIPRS
T7 sequence (P11712 whole entry): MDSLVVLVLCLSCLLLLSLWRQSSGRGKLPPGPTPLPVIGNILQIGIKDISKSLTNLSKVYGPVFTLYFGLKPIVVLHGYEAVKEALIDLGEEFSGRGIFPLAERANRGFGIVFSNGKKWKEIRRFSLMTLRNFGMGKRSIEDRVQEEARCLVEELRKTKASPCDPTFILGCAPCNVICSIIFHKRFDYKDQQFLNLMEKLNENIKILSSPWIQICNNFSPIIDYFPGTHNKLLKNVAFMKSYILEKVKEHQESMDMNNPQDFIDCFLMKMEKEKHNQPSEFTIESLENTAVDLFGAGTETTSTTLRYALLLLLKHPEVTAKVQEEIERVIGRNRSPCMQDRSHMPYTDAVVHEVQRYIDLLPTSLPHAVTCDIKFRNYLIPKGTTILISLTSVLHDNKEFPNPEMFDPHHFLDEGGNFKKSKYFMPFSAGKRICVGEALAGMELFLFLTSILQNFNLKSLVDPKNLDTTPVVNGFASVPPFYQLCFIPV

decrease of P450 content (reduced-CO spectrum) (P450 3A4 [1]; with NADPH): approximately 40% | P450 (P450 3A4 [1]; BG+/NADPH+): 0.27 nmol/mL | P450 (P450 3A4 [1]; BG+/NADPH−): 0.47 nmol/mL | P450 2A6 activity in human liver microsomes (P450 2A6): inhibited | P450 1A2 activity in human liver microsomes (P450 1A2): inhibited | inhibition at 2 μM (P450 2C19; 2 μM BG): ~71% | inhibition at 20 μM (P450 2C19; 20 μM BG): ~100% | decrease of the amount of apoP450 3A4 (P450 3A4 [2]; 50 μM BG, reverse phase HPLC, vs −NADPH control): about 50% | heme recovered (P450 3A4 [2]; BG inactivated P450 3A4 sample): Approximately 90% | reductase and cytochrome b5 protein recovered from the column (P450 3A4 [2]; compared with −NADPH controls): ~100% | IC50 (P450 2E1): ~3.9 µM | IC50 (P450 2D6): ~3 µM | inactivation of testosterone 6β-hydroxylation activity (P450 3A4 [3]; 2 μM BG with α-naphathoflavone 6 to 50 μM): about 55% | loss of testosterone 6β-hydroxylation activity (P450 3A4 [3]; 50 μM BG, with NADPH, 37° C., 15 minutes): 90% | Testosterone 6β-hydroxylation (P450 3A4 [3]; BG+/NADPH+, 50 μM BG, 37° C., 15 minutes): 0.8 nmol/min/nmol | Testosterone 6β-hydroxylation (P450 3A4 [3]; BG+/NADPH−, 50 μM BG, 37° C., 15 minutes): 2.9 nmol/min/nmol | KI (inactivation) (P450 3A4 [3]; [5]): 7.7 µM | inhibition at 50 μM (P450 3A4 [3]; [5]): ~60% | inhibition at […] (P450 3A4 [3]; [5]): ~55% | kinact (P450 3A4 [3]; read-out: Kinactivation (maximal rate constant of inactivation)): 0.005 s⁻¹ | Kinactivation (maximal rate constant of inactivation) (P450 3A4 [3]; reconstituted system): 0.3 min⁻¹ | IC50 (P450 3A4 [4]): ~4.6 µM | IC50 (P450 2C9): ~2.4 µM
Structure (SMILES): CC(C)=CCC/C(C)=C/COc1c2ccoc2cc2oc(=O)ccc12 [BG, (E)-4-[(3,7-dimethyl-2,6-octadienyl)oxy]-7H-furo[3,2-g][1]benzopyran-7-one]
